Laboratory results reported in patent US5462861A, “Method for improving enzyme activities with noble gases” (American Air Liquide, Chicago Research Center, priority 1993, dated 1995).

Columns and labels:
[1] = target: Triosephosphate isomerase (Homo sapiens, UniProt P60174); assay: Triosephosphate isomerase activity under gas; assay type: biochemical
Experimental: (§1) Solution preparation: Optimized w/v solutions are prepared by diluting the enzyme (units/ml) and the substrate (μg/ml) in appropriate buffer (optimized pH and molarity for enzymes). The solutions are used for gas experiments at once to avoid loss of activity. Various enzyme and substrate concentrations and inhibitors may be employed. Physical parameters are varied as required.
(§2) Preparation of samples: Cuvets are filled with 2 ml of substrate solution by means of a gas-tight syringe. Gas-tight serum vials are filled with enzyme and solvent. Sufficient gas is consecutively bubbled in the cuvets and serum vials, with a 1-hr wait between injections to maximize equilibration of gas. All syringes and dead spaces are purged before filling with the appropriate gas. The amount of gas used has been measured sufficient to saturate the solution required.
(§3) Spectrophotometric time-drive, reaction rate, and kinetic analyses: cuvets and serum vials are saturated with gas 40 minutes before the run. A gas-filled syringe is used to retrieve 0.5 ml of enzyme solution to avoid air contact. The 0.5 ml syringe injections of enzyme are made simultaneously to effect a common starting time to for the samples. 7 gases (air, O2, N2, Ne, Ar, Kr, Xe) are run at various temperatures each (from 0° to 60° ). Changes in the rate or final equilibrium of the reaction versus ambient air are recorded. Comparison is also made with added oxygen, and with deoxygenation. Some samples are also prepared under pressure.
(§4) In a complete experiment, an enzyme at optimal pH and buffering salt concentration is reacted with 5 substrate concentrations in solution with noble gas at 1 atm. […] Controls are also run after evacuation of solution by vacuum. The reaction is monitored colorimetrically in a scanning spectrophotometer in real time, and the signals are treated mathematically to obtain rate and yield differences. Sample numbers are constant and sufficient to ensure significance of results. All parameters are independently controlled and measured, and more complex experiments are occasionally carried out.

[2] = test system: lactate dehydrogenase; assay: Lactate dehydrogenase activity under gas; assay type: biochemical; conditions: 10° C., FIG. 42
Experimental: Solution preparation: Optimized w/v solutions are prepared by diluting the enzyme (units/ml) and the substrate (μg/ml) in appropriate buffer (optimized pH and molarity for enzymes). The solutions are used for gas experiments at once to avoid loss of activity. Various enzyme and substrate concentrations and inhibitors may be employed. Physical parameters are varied as required. […] Gas-tight serum vials are filled with enzyme and solvent. Sufficient gas is consecutively bubbled in the cuvets and serum vials, with a 1-hr wait between injections to maximize equilibration of gas. All syringes and dead spaces are purged before filling with the appropriate gas. The amount of gas used has been measured sufficient to saturate the solution required. Spectrophotometric time-drive, reaction rate, and kinetic analyses: cuvets and serum vials are saturated with gas 40 minutes before the run. A gas-filled syringe is used to retrieve 0.5 ml of enzyme solution to avoid air contact. […] Changes in the rate or final equilibrium of the reaction versus ambient air are recorded. Comparison is also made with added oxygen, and with deoxygenation. Some samples are also prepared under pressure.

[3] = test system: transferase enzymes; assay: Transferases, effects for the class; assay type: biochemical
Experimental: as §1
as §2, with “All syringes and dead spaces are purged before filling with the appropriate gas.” left out
(§5) Spectrophotometric time-drive, reaction rate, and kinetic analyses: cuvets and serum vials are saturated with gas 40 minutes before the run. […] Changes in the rate or final equilibrium of the reaction versus ambient air are recorded. […]
(§6) In a complete experiment, an enzyme at optimal pH and buffering salt concentration is reacted with 5 substrate concentrations in solution with noble gas at 1 atm. […] The reaction is monitored colorimetrically in a scanning spectrophotometer in real time, and the signals are treated mathematically to obtain rate and yield differences. […]

[4] = test system: oxidoreductase enzymes; assay: Oxidoreductases, effects for the class; assay type: biochemical; conditions: for Maxima for class: effect: Class I oxidoreductases, minus = inhibition
Experimental: as §1, §2, §3, §4

[5] = test system: isomerase enzymes; assay: Isomerases, effects for the class; assay type: biochemical
Experimental: as §1
as §2, with “All syringes and dead spaces are purged before filling with the appropriate gas.” left out
as §5, §6

[6] = test system: lyase enzymes; assay: Lyases, effects for the class; assay type: biochemical
Experimental: as §1
as §2, with “All syringes and dead spaces are purged before filling with the appropriate gas.” left out
as §5, §6

[7] = test system: particulate sialidase; conditions: Sandhoff et al, FEBS Letters 1976; cited from earlier work
[8] = test system: hydrolases; assay: Hydrolases, effects for the class; assay type: biochemical
Experimental: as §1
as §2, with “All syringes and dead spaces are purged before filling with the appropriate gas.” left out
as §5, §6

[9] = target: T1, β-D-Glucosidase (Caldicellulosiruptor saccharolyticus, UniProt P10482); assay: Immobilized enzymes: β-D-glucosidase under air or xenon; assay type: biochemical, Caldocellum saccharolyticum; conditions: 25° C., FIG. 44
T1 construct: purchased Sigma G-0898; host or cells: E. coli
T1 sequence (P10482 whole entry): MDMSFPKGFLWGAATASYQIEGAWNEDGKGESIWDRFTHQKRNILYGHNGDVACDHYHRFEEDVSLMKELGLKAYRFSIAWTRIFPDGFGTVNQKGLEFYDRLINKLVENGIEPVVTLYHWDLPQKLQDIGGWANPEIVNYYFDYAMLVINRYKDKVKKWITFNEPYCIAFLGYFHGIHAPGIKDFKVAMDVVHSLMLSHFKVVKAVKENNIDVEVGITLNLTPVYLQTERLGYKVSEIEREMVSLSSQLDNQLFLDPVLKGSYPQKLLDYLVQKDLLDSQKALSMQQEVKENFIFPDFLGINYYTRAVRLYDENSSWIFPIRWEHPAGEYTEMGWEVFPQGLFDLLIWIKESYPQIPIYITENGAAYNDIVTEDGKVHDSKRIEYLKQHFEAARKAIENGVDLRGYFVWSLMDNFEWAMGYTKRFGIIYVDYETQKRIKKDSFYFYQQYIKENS
Experimental: Theory: Same gases effects on either free or immobilized enzymes.
β-D-Glucosidase (SIGMA) No. G-0898)
From Caldocellum saccharolyticum: Recombinant (pfs)
Soln C1: β-D-Glucosidase solution in Na Phos. buffer pH 6.6 (25 ° C.) (2.18 Units/ml)
(For insoluble enzymes lyophilized powders, SIGMA recommends to suspend the required amount to 5-10 mg solid/ml H2 O and to allow brief hydration). We allowed a brief hydration (until solution appears)
Sample: 2 ml Soln B+0.5 ml Soln C1
CPRG: β-Glucosidase: 25° C.

[10] = test system: tyrosinase; assay: Kinetic analyses, tyrosinase; assay type: biochemical
Experimental: (§7) Absorbance curve data as previously exemplified reveal differences in enzymatic activity under different gas atmospheres both in terms of yield and in terms of rate. Yield can be calculated after equilibrium is reached by comparative curve differencing, and through formal linearization and calculation--which are also necessary for rate calculations. Rate differences are calculated using commercially available computer programs (ENZFITTER, GRAFIT, ENZPACK, PEAKFIT) which transform the initial uv/vis absorbance data curve (in these examples, a power curve) into straight lines (linear regression of power curve). These lines may be expressed as a mathematical equation in which the slope is approximately the rate, and the limit Y-intercept is approximately the yield. […] The examples and figures described below represent these steps in exemplary form.
FIG. 51, Table 6, FIG. 52 and Table 7 illustrate data from the first 160 seconds of a single tyrosinase experiment expressed as power curves for air, then for xenon gassing.

[11] = test system: β-glucosidase; assay: Kinetic analyses, β-glucosidase; assay type: biochemical; parameters: Rates G5 / Rates G5, Calculated: unit not given beside the values
Experimental: as §7
Table 1 illustrates Michaelis-Menten enzyme kinetics calculations of Vmax and Km, and the rates for each reaction. Vmax is the limiting rate, Km is the Michaelis-Menten constant.
FIG. 46 and Table 2 illustrate the same as FIG. 45 and Table 1, however, for xenon reactions. It is readily apparent that the Vmax and Km for xenon are larger.
FIG. 47, Table 3, FIG. 48 and Table 4 illustrate the first-order power curve regression rate linear transformations for the above air and xenon gassed reactions, showing an approximation to the Michaelis-Menten data, wherein the Xe/Air rate relationship is in the same ratio as above.
FIG. 49, FIG. 50 and Table 5 illustrate the same first-order rate approximation regression linearizations for all gases studied in this run.

[12] = 1st order rate equation, [S] = 60 micrograms/ml, Table 4

Sequence of Triosephosphate isomerase (P60174 2-249 limits assumed, species assumed): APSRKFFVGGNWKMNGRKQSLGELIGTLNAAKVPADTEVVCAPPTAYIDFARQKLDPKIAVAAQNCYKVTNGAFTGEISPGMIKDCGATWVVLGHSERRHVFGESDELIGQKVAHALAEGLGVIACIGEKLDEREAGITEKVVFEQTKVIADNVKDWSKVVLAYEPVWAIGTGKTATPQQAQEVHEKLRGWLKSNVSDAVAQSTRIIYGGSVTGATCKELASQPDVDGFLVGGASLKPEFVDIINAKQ

With `[Ne]` [Ne, neon] the effect ([1]; 10° C., plus = enhancement) was “+4%”, the “effect on lactate dehydrogenase” value [2] was “inhibiting” and the effect on transferases [3] was “lowest inhibitory or enhancing effect”. The “Maxima for class: effect” value [4] was -85%.

In the case of `[Ar]` [Ar, argon], the effect on isomerases [5] was “can be induced to inhibit enzyme activity at higher temperatures”, the effect ([1]; 10° C., plus = enhancement) was “+8%” and the effect ([1]; 25° C., inhibition) was -37%. For the same compound, the effect on lyases [6] was “least such effect”, the “effect on oxidoreductase reactions” value [4] was “very active at low temperatures” and the “Maxima for class: effect” value [4] was -91%.

For `[Xe]` [Xe, xenon], the “effect on activity of particulate sialidase” value [7] is listed as “enhance the activity”, the effect on hydrolases [8] is listed as “largest enhancing effect” and the effect ([1]; 10° C., plus = enhancement) is listed as “+24%”. For the same compound, the “effect on β-glucosidase in immobilized form” value [9] was “enhancing”, the V max ([10]; Michaelis-Menten, Gas 5: Xenon, Table 7, first 160 seconds) was 0.0001 and the “Y, Calculated” value ([10]; [S] 10.0000) was -0.0001. The “Y, Gas 5: Xenon (rate)” value ([10]; [S] 10.0000) was 0.0007, the “Y, Calculated” value ([10]; [S] 20.0000) was -0.0003 and the “Y, Gas 5: Xenon (rate)” value ([10]; [S] 20.0000) was 0.0019. The “Y, Calculated” value ([10]; [S] 30.0000) was 0.0017, the “Y, Gas 5: Xenon (rate)” value ([10]; [S] 30.0000) was 0.0019 and the “Y, Calculated” value ([10]; [S] 40.0000) was 0.0004. The “Y, Gas 5: Xenon (rate)” value ([10]; [S] 40.0000) was 0.0019, the “Y, Calculated” value ([10]; [S] 50.0000) was 0.0003 and the “Y, Gas 5: Xenon (rate)” value ([10]; [S] 50.0000) was 0.0004. For the same compound, the “effect on tyrosinase activity” value ([10]; linearized rate regression and Michaelis-Menten calculations) was “strongly inhibiting tyrosinase activity”, the “effect on lactate dehydrogenase” value [2] was “enhancing” and the “Vmax and Km compared with air” value [11] was “larger”. It also gave a Limit [11, 12] of 0.8382, a Rate constant [11, 12] of 0.0045 and a V max ([11]; Michaelis-Menten, Gas 5: Xenon, Table 2) of 0.0028. The “Rates G5” value ([11]; [S] 20.0000) was 0.0032, the “Rates G5, Calculated” value ([11]; [S] 20.0000) was 0.0032 and the “Rates G5” value ([11]; [S] 40.0000) was 0.0029. The “Rates G5, Calculated” value ([11]; [S] 40.0000) was 0.0029, the “Rates G5” value ([11]; [S] 60.0000) was 0.0027 and the “Rates G5, Calculated” value ([11]; [S] 60.0000) was 0.0029. For the same compound, the “Rates G5” value ([11]; [S] 80.0000) was 0.0030, the “Rates G5, Calculated” value ([11]; [S] 80.0000) was 0.0029 and the “Rates G5” value ([11]; [S] 100.0000) was 0.0029. For the same compound, the “Rates G5, Calculated” value ([11]; [S] 100.0000) was 0.0028, the “effect on β-glucosidase reaction” value ([11]; power curve analysis / linearization, FIGS. 49 and 50) was “significant enhancement” and the effect on lyases [6] was “largest enhancing effect”. For the same compound, the “effect on oxidoreductase reactions” value [4] was “largest effect on the rate” and the “Maxima for class: effect” value [4] was -95%.

For `[Kr]` [Kr, krypton], the effect on hydrolases [8] was “least such effect”, the effect ([1]; 10° C., plus = enhancement) was “+12%” and the effect on transferases [3] was “largest inhibitory or effect”. For the same compound, the “effect on oxidoreductase reactions” value [4] was “somewhat lesser effect than xenon” and the “Maxima for class: effect” value [4] was -91%.
